Results: patent publication US20070213291A1, “Therapeutically useful synthetic oligonucleotides” (priority 1999, published 2007)

What was measured:
Format in all cases: cell-based
[1] = tested on: Jurkat human leukemia T cells; test: Inhibition of Jurkat human leukemia T cell proliferation (MTT reduction); conditions: 100 μg/ml sequence, 48 h, 2.5×10^5 cells/ml
How it was run: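 Jurkat cells at 2.5×10^5 cells/ml exposed to 100 μg/ml of 2–45-base A/C/G/T sequences (0 μg/ml control) for 48 h, 37° C, 5% CO2. Viability by MTT reduction read at 570 nm.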

chimpanzee PBMCs = test: Cytokine production by chimpanzee PBMC (ELISA); conditions: PBMC of 4 healthy chimpanzees, 100 μg/ml, 48 h
Method: (§1) Unless stated otherwise, 1×10^6 cells were incubated with 100 μg/ml of each of the sequences tested for 48 h at 37° C. in 5% CO2. Production of cytokines IL-6, IL-10, IL-12, IL-1beta and TNF-alpha was determined in pg/ml in 100 μl of culture supernatant using the appropriate commercial ELISA (BioSource, Camarillo Calif.). The IL-12 ELISA measures both IL-12 p70 complex and free p40 subunit. Results are expressed as the “fold” (×) increase in cytokine production by treated cells compared to control cells.
PBMCs were isolated from 4 healthy chimpanzees as in Example 35. Chimpanzee PBMCs were incubated with 6 base GT, AGT, CGT, AG, CG and GG sequences and production of the cytokines IL-10, IL-12 and TNF-alpha was determined (Table 41).

[2] = tested on: Jurkat human leukemia T cells; test: Apoptosis by phosphatidylserine/annexin V-FITC flow cytometry; conditions: 50 μM sequence
Method: (§2) The redistribution of phosphatidylserine in the plasma membrane during apoptosis was measured by flow cytometry using FITC-conjugated annexin V (BD Pharmingen, San Diego, Calif.). NuMA release into the supernatant was determined using a commercial ELISA kit (Oncogen/Calbiochem, Cambridge, Mass.).
Jurkat human leukemia T cells were incubated with 50 μM of 3, 4, 5, 6 and 7 GT base sequences, a 5 base ACGT sequence, 6 base AG, GG, AGT and CGT sequences and a 7 base GG sequence. […]
Jurkat human leukemia T cells were incubated with GT-rich or AC-rich sequences derived from the murA gene of Mycobacterium phlei (GenBank: Accession Number X99776). Inhibition of proliferation was measured by the reduction of MTT as in Example 3, cell cycle arrest was detected by flow cytometry using propidium iodide as in Example 21 and apoptosis was evaluated by flow cytometry using annexin-V-FITC as in Example 23.

[3] = tested on: Jurkat human leukemia T cells; test: NuMA release into supernatant (ELISA); conditions: Jurkat; for % NuMA released (treated vs untreated cells): 50 μM sequence
Method: as §2
Jurkat human leukemia T cells were incubated with 50 μM of 3, 4, 5, 6 and 7 GT base sequences, a 5 base ACGT sequence, 6 base AG, GG, AGT and CGT sequences and a 7 base GG sequence.
Jurkat human leukemia T cells (1×10^6/ml) were incubated with 6 and 27 GT base sequences (Table 32). NuMA was determined as in Example 23.
Jurkat human cell leukemia T cells were incubated for 24 h with 6 base GT SEQ ID NO:25, complementary 6 base AC SEQ ID NO:79, and 6 base GT SEQ ID NO:25+6 base AC SEQ ID NO:79. GT SEQ ID NO:25 and AC SEQ ID NO:79 were hybridized by mixing the sequences (1:1) and heating for 10 minutes at 65° C. As controls, GT SEQ ID NO:25 and AC SEQ ID NO:79 were heated for 10 minutes at 65° C. (Table 33). Apoptosis was evaluated as in Example 23.

[4] = tested on: THP-1 human acute monocytic leukemia cells; test: Cytokine production by THP-1 cells (ELISA); conditions: THP-1, 1×10^6 cells, 100 μg/ml, 48 h; for ↑ IL-12 (fold increase treated vs control cells): p70 complex and free p40
How it was run: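 1×10^6 cells exposed to 100 μg/ml of each oligonucleotide sequence for 48 h at 37° C in 5% CO2, unless stated otherwise. Cytokines quantified in culture supernatant by ELISA, IL-12 assay detecting both p70 and free p40; values are fold increase over untreated control cells.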

[5] = tested on: human peripheral blood mononuclear cells; test: Cytokine production by human PBMC (ELISA); conditions: PBMC of 7 healthy humans, 100 μg/ml, 48 h
Method: as §1
Peripheral blood mononuclear cells (hereinafter, “PBMCs”) were isolated from 7 healthy humans by Ficoll-Hypaque (Amersham Pharmacia Biotech, Baie d'Urfée, Québec, Canada) by density gradient centrifugation of whole blood. PBMCs were incubated with 6 base GT, AGT, CGT, AG, CG and GG sequences and production of the cytokines IL-1beta, IL-6, IL-10 and IL-12 were determined.

rhesus monkey PBMCs = test: Cytokine production by rhesus monkey PBMC (ELISA); conditions: PBMC of 4 healthy rhesus monkeys, 100 μg/ml, 48 h
Method: as §1
PBMCs were isolated from 4 healthy rhesus monkeys as in Example 35. PBMCs were incubated with 6 base GT, AGT, CGT, AG, CG ands GG sequences and production of the cytokines IL-6, IL-12 and TNF-alpha was determined (Table 42).

[6] = tested on: Jurkat human leukemia T cells; test: Cell cycle stage in Jurkat cells (propidium iodide flow cytometry); conditions: Jurkat 1×10^6 cells/ml, 24 h, sequences heated 10 minutes at 65° C.
How it was run: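 Exponentially growing Jurkat cells were exposed for 24 h to 2–45-base A/C/G/T oligonucleotides, or at 1×10^6 cells/ml to 6-base GT and AC strands, alone (heated 10 min, 65 °C) or hybridized 1:1. Detergent-, trypsin-, RNase- and spermine-treated nuclei were propidium iodide-stained and scored for G0/G1, early/mid/late S and G2/M by doublet-discriminating flow cytometry.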

Substance | % INHIBITION of Jurkat human leukemia T cell proliferation [1] | IL-10 fold increase: mean +/− SD (chimpanzee PBMCs) | IL-12 fold increase: mean +/− SD (chimpanzee PBMCs) | TNF-alpha fold increase: mean +/− SD (chimpanzee PBMCs) | % of cells in apoptosis (positive for PS/A-V staining) [2] | % NuMA released (treated vs untreated cells) [3] | ↑ IL-6 (fold increase treated vs control cells) [4] | ↑ IL-12 (fold increase treated vs control cells) [4] | IL-1 beta fold increase: mean +/− SD [5] | IL-6 fold increase: mean +/− SD [5] | IL-10 fold increase: mean +/− SD [5] | IL-12 fold increase: mean +/− SD [5] | IL-10 fold increase: mean +/− SD (rhesus monkey PBMCs) | IL-12 fold increase: mean +/− SD (rhesus monkey PBMCs) | TNF-alpha fold increase: mean +/− SD (rhesus monkey PBMCs) | further results
AAGTAA [SEQ ID NO:27] | 13% | 2.1 +/− 1.1 fold increase | 13.2 +/− 8.2 fold increase | 7.9 +/− 3.9 fold increase | 20% | 56% | 12.8x | 6.0x | 1.3 +/− 0.5 fold increase | 9.6 +/− 7.3 fold increase | 1.0 +/− 0.1 fold increase | 2.4 +/− 2.2 fold increase | 0.9 +/− 0.1 fold increase | 7.6 +/− 2.6 fold increase | 6.0 +/− 5.0 fold increase | –
CC(AC)1CC (DNA CCACCC; unmodified DNA) [SEQ ID NO:79] | – | – | – | – | – | – | – | – | – | – | – | – | – | – | – | % NuMA released (untreated vs treated cells) ([3]; 24 h, sequences heated 10 minutes at 65° C.): 9%; % cells in phase: G0/G1 [6]: 36.0%; % cells in phase: G2/M [6]: 30.5%; % cells in phase: SE [6]: 10.4%; % cells in phase: SL [6]: 9.7%; % cells in phase: SM [6]: 13.4%; Arrest (cell cycle) [6]: had no effect on the cell cycle and None
CCGTCC [SEQ ID NO:28] | 11% | 3.8 +/− 2.8 fold increase | 13.3 +/− 8.4 fold increase | 10.3 +/− 5.7 fold increase | 6% | 0% | 12.6x | 3.8x | 2.1 +/− 1.8 fold increase | 10.4 +/− 13.0 fold increase | 1.0 +/− 0.1 fold increase | 5.9 +/− 10.7 fold increase | 1.1 +/− 0.2 fold increase | 10.1 +/− 3.7 fold increase | 14.2 +/− 3.7 fold increase | –
CG(GT)1A (DNA CGGTA; unmodified DNA) [SEQ ID NO:80] | – | – | – | – | 6% | 9% | – | – | – | – | – | – | – | – | – | –
GG(GG)1GGG (DNA GGGTGGG; unmodified DNA) | – | – | – | – | 12% | 26% | – | – | – | – | – | – | – | – | – | –
GG(GT)1 | – | – | – | – | 21% | 64% | – | – | – | – | – | – | – | – | – | –
GGGCGG (unmodified DNA) [SEQ ID NO:46] | 23% | 4.7 +/− 3.4 fold increase | 15.8 +/− 10.4 fold increase | 14.1 +/− 6.6 fold increase | 16% | 11% | 9.8x | 2.3x | 1.2 +/− 0.3 fold increase | 15.8 +/− 16.2 fold increase | 1.0 +/− 0.1 fold increase | 3.0 +/− 3.8 fold increase | 1.2 +/− 0.2 fold increase | 11.0 +/− 4.4 fold increase | 16.8 +/− 4.1 fold increase | –
GGGGGG [SEQ ID NO:44] | 26% | 11.2 +/− 9.1 fold increase | 15.1 +/− 10.0 fold increase | 13.8 +/− 6.5 fold increase | 5% | 0% | 15.1x | 0.0x | 7.1 +/− 9.4 fold increase | 21.0 +/− 14.7 fold increase | 1.7 +/− 1.6 fold increase | 7.0 +/− 12.5 fold increase | 2.1 +/− 1.0 fold increase | 10.7 +/− 5.6 fold increase | 13.9 +/− 8.5 fold increase | –
